Results: patent US11723946B2, “Methods for regulating transcription of multiple genes and expression of multiple targets” (CHINA MEDICAL UNIVERSITY, priority 2014, dated 2023)

Columns and labels:
[1] = tested on: NF-κB; experiment: Whole animal bioluminescent imaging, LPS-induced NF-κB/luc transgenic mice; type: in vivo
Excerpt: Mice: The NF-κB/luc transgenic mice bearing the luciferase transgene driven by two copies of the NF-kappaB regulatory elements were mated with wild-type FVB mice to generate the hybrid NF-κB/luc transgenic offspring for the experiments. Whole animal bioluminescent imaging: 15 mice with age of 6˜8 weeks were randomly divided into three groups. The group 1 was the blank group; the group 2 was control group; and the group 3 was experimental group. The mice of the group 2 and the group 3 were administration with 100 ul of […] lipopolysaccharide (LSP) solution to induce the inflammation in the mice by intraperitoneal injection (IP injection). As the blank control, the mice of group 1 were administered with 100 μl of PBS by IP injection. After the LPS-injection for 5 minutes, the mice of the group 3 were further injected with 20 μl solution that contains 0.5 mg/Kg of the present polypeptide by IP injection. In contrast, the mice of the group 2 and the […] were injected with 20 μul of water. […] For in vivo imaging mice were anesthetized with isoflurane and injected intraperitoneally with 150 mg/kg luciferin. After 10 minutes, the mice were placed face up and imaged for 1 min with the camera set at the highest sensitivity by IVIS Imaging System-200 (Series Xenogen Hopkinton, Mass.). The photons emitted from the tissues were quantified by Living Images software (Xenogen, Hopkinton, Mass.) and were shown in FIG. 4A. In the FIG. 4A, the Y-axis shown the signal strength (photons/sec) that stands for total photons diffused from the mice.

[2] = tested on: NF-κB; experiment: Ex vivo bioluminescent imaging of organs, LPS-induced NF-κB/luc transgenic mice; type: in vivo; conditions: group 2 (LPS IP) vs group 1 (PBS blank); up-regulation
Description: The mice of the three groups manipulated in example 3 were abdominally injected with 150 mg/Kg luciferin. After luciferin injection for 5 minutes, the mice were sacrificed and the tissues including brain, heart, lung, liver, spleen, stomach, kidney, ovary and intestine were rapidly removed. The collected tissues were placed in the IVIS Imaging System-200 Series (Xenogen, Hopkinton, Mass.) and imaged with the same setting used for in vivo bioluminescent imaging.
In the table 2, the average of luciferin value in the mice of the group 2 was divided to average of luciferin value in the mice of the group 1 to obtain the fold change. In table 3, the average of luciferin value in the mice of the group 3 was divided to the average of luciferin value in the mice of the group 2 to obtain the fold change.

Substance: lipopolysaccharide [LPS, reference compound]
- increase of NF-κB-driven luminescent intensity ([1]; LPS group vs blank group): approximately 10.95 fold
- average of luciferin value ([1]; group 2: LPS IP + water, 4 hours, blank group 1 2.92×10^7): 31.97×10^7 photons/sec
- Fold change of the luciferin value, Brain [2]: 18.87 folds
- Fold change of the luciferin value, Heart [2]: 6.03 folds
- Fold change of the luciferin value, Intestine [2]: 55.63 folds
- Fold change of the luciferin value, Kidney [2]: 93.78 folds
- Fold change of the luciferin value, Liver [2]: 4.06 folds
- Fold change of the luciferin value, Lung [2]: 11.90 folds
- Fold change of the luciferin value, Ovary [2]: 5.35 folds
- Fold change of the luciferin value, Spleen [2]: 5.57 folds
- Fold change of the luciferin value, Stomach [2]: 4.95 folds
